Laboratory results: US20260293895A1, “HERBICIDAL DERIVATIVES” (SYNGENTA CROP PROTECTION AG, priority 2023, published 2026)

Tests used:
Assay type in all cases: in vivo
[1] = test system: Amaranthus retoflexus (AMARE); test: Post-emergence herbicidal test, Amaranthus retoflexus (AMARE); conditions: 250 g/ha, sprayed after 8 days cultivation, evaluated after 13 days, glasshouse
Experimental: (§1) Seeds of a variety of test species are sown in standard soil in pots (Setaria faberi (SETFA), Echinochloa crus-galli (ECHCG), Amaranthus palmeri (AMAPA), Zea mays (ZEAMX), Amaranthus retoflexus (AMARE),). After 8 days cultivation under controlled conditions in a glasshouse (at 24° C./16° C., day/night; 14 hours light; 65% humidity), the plants are sprayed with an aqueous spray solution derived from the formulation of the technical active ingredient in acetone/water (50:50) solution containing 0.5% Tween 20 (polyoxyethelyene sorbitan monolaurate, CAS RN 9005-64-5). Compounds are applied at 250 g/ha unless otherwise stated. The test plants are then grown in a glasshouse under controlled conditions in a glasshouse (at 24° C./16° C., day/night; 14 hours light; 65% humidity) and watered twice daily. After 13 days the test is evaluated for the percentage damage caused to the plant. The biological activities are shown in the following table on a five-point scale (5=81-100%; 4=61-80%; 3=41-60%; 2=21-40%; 1=1-20%; 0=no activity; -=not tested).

Zea mays (ZEAMX) [2] = test: Post-emergence test, Zea mays (ZEAMX); parameters: key: 5: 81-100%; 4: 61-80%; 3: 41-60%; 21-40%; 1-20%; 0: no activity; -: not tested; conditions: 250 g/ha, sprayed after 8 days cultivation, evaluated after 13 days, glasshouse, crop
Experimental: as §1

[3] = test system: Echinochloa crus-galli (ECHCG); test: Post-emergence herbicidal test, Echinochloa crus-galli (ECHCG); conditions: 250 g/ha, sprayed after 8 days cultivation, evaluated after 13 days, glasshouse
Experimental: as §1

Zea mays (ZEAMX) [4] = test: Pre-emergence test, Zea mays (ZEAMX); conditions: 250 g/ha, evaluated after 13 days, glasshouse, crop
Setaria faberi (SETFA) [5] = test: Post-emergence herbicidal test, Setaria faberi (SETFA); conditions: 250 g/ha, sprayed after 8 days cultivation, evaluated after 13 days, glasshouse
Experimental: as §1

[6] = test system: Amaranthus retoflexus (AMARE); test: Pre-emergence herbicidal test, Amaranthus retoflexus (AMARE); conditions: 250 g/ha, evaluated after 13 days, glasshouse
Setaria faberi (SETFA) [7] = test: Pre-emergence herbicidal test, Setaria faberi (SETFA); conditions: 250 g/ha, evaluated after 13 days, glasshouse
[8] = test system: Amaranthus palmeri (AMAPA); test: Post-emergence herbicidal test, Amaranthus palmeri (AMAPA); conditions: 250 g/ha, sprayed after 8 days cultivation, evaluated after 13 days, glasshouse
Experimental: as §1

[9] = test system: Amaranthus palmeri (AMAPA); test: Pre-emergence herbicidal test, Amaranthus palmeri (AMAPA); conditions: 250 g/ha, evaluated after 13 days, glasshouse
[10] = test system: Echinochloa crus-galli (ECHCG); test: Pre-emergence herbicidal test, Echinochloa crus-galli (ECHCG); conditions: 250 g/ha, evaluated after 13 days, glasshouse

CCn1c(Cl)cc(=O)c(C(=O)O)c1-c1ccc(Cl)c(Cl)c1 [Compound 2, 6-chloro-2-(3,4-dichlorophenyl)-1-ethyl-4-oxo-pyridine-3-carboxylic acid]
percentage damage caused to the plant, AMARE [1]: 1 (1-20%)
percentage damage caused to the plant, ZEAMX (Zea mays (ZEAMX) [2]): 0
percentage damage caused to the plant, ECHCG [3]: 3 (41-60%)
percentage damage caused to the plant, ZEAMX (Zea mays (ZEAMX) [4]): 1 (1-20%)
percentage damage caused to the plant, SETFA (Setaria faberi (SETFA) [5]): 4 (61-80%)
percentage damage caused to the plant, AMARE [6]: 3 (41-60%)
percentage damage caused to the plant, SETFA (Setaria faberi (SETFA) [7]): 5 (81-100%)
percentage damage caused to the plant, AMAPA [8]: 1 (1-20%)
percentage damage caused to the plant, AMAPA [9]: 2 (21-40%)
percentage damage caused to the plant, ECHCG [10]: 3 (41-60%)
